Source: the NIST ThermoML archive (doi:10.1016/j.jct.2004.12.014)

What was measured:
[1] = excess molar enthalpy (molar enthalpy of mixing); xn = mol fraction of the nth substance listed; conditions: 318.15 K, 101 kPa, Liquid
[2] = xn = mol fraction of the nth substance listed; conditions: 318.15 K, 101 kPa, Liquid

CCCCCCCCCCCCC [tridecane] + CCCOC(=O)CC
Conditions	excess molar enthalpy [kcal/mol]	excess molar volume [m3/mol]
[1], x2 = 0.0771	0.0824	–
[1], x2 = 0.1623	0.154	–
[1], x2 = 0.248	0.217	–
[1], x2 = 0.3288	0.264	–
[1], x2 = 0.4032	0.294	–
[1], x2 = 0.471	0.31	–
[1], x2 = 0.5295	0.315	–
[1], x2 = 0.5719	0.311	–
[1], x2 = 0.5818	0.308	–
[1], x2 = 0.6224	0.298	–
[1], x2 = 0.6662	0.283	–
[1], x2 = 0.7127	0.261	–
[1], x2 = 0.7593	0.232	–
[1], x2 = 0.8089	0.199	–
[1], x2 = 0.8585	0.161	–
[1], x2 = 0.9084	0.114	–
[1], x2 = 0.9562	0.0607	–
[2], x2 = 0.1068	–	3.54e-07
[2], x2 = 0.2003	–	6.1e-07
[2], x2 = 0.2831	–	7.8e-07
[2], x2 = 0.3626	–	8.99e-07
[2], x2 = 0.4343	–	9.83e-07
[2], x2 = 0.4988	–	1.001e-06
[2], x2 = 0.5633	–	1.013e-06
[2], x2 = 0.6197	–	9.68e-07
[2], x2 = 0.6738	–	9.29e-07
[2], x2 = 0.7241	–	8.44e-07
[2], x2 = 0.7705	–	7.66e-07
[2], x2 = 0.8135	–	6.6e-07
[2], x2 = 0.8558	–	5.36e-07
[2], x2 = 0.8941	–	4.18e-07
[2], x2 = 0.9306	–	2.67e-07
[2], x2 = 0.9641	–	1.43e-07

CCCCCCCCCCCCC [tridecane] + CCOC(=O)CC
Conditions	excess molar enthalpy [kcal/mol]	excess molar volume [m3/mol]
[1], x2 = 0.0944	0.112	–
[1], x2 = 0.189	0.201	–
[1], x2 = 0.282	0.274	–
[1], x2 = 0.366	0.326	–
[1], x2 = 0.4354	0.355	–
[1], x2 = 0.4882	0.367	–
[1], x2 = 0.5339	0.372	–
[1], x2 = 0.5841	0.371	–
[1], x2 = 0.6332	0.361	–
[1], x2 = 0.6564	0.351	–
[1], x2 = 0.6775	0.343	–
[1], x2 = 0.6925	0.335	–
[1], x2 = 0.7364	0.306	–
[1], x2 = 0.7802	0.271	–
[1], x2 = 0.8254	0.228	–
[1], x2 = 0.8702	0.181	–
[1], x2 = 0.9163	0.127	–
[1], x2 = 0.9613	0.0636	–
[2], x2 = 0.0553	–	2.18e-07
[2], x2 = 0.1314	–	4.88e-07
[2], x2 = 0.2286	–	7.67e-07
[2], x2 = 0.3064	–	9.41e-07
[2], x2 = 0.3982	–	1.105e-06
[2], x2 = 0.4702	–	1.178e-06
[2], x2 = 0.5353	–	1.203e-06
[2], x2 = 0.6003	–	1.177e-06
[2], x2 = 0.6545	–	1.134e-06
[2], x2 = 0.7057	–	1.072e-06
[2], x2 = 0.7518	–	9.93e-07
[2], x2 = 0.7964	–	8.81e-07
[2], x2 = 0.8358	–	7.55e-07
[2], x2 = 0.8729	–	6.38e-07
[2], x2 = 0.9066	–	4.97e-07
[2], x2 = 0.9396	–	3.51e-07
[2], x2 = 0.9702	–	2.08e-07

CCCCCCCCCCC [undecane] + CCCOC(=O)CC
Conditions	excess molar enthalpy [kcal/mol]	excess molar volume [m3/mol]
[1], x2 = 0.0636	0.0667	–
[1], x2 = 0.1368	0.127	–
[1], x2 = 0.2052	0.179	–
[1], x2 = 0.2811	0.228	–
[1], x2 = 0.355	0.26	–
[1], x2 = 0.4208	0.276	–
[1], x2 = 0.4796	0.283	–
[1], x2 = 0.5347	0.283	–
[1], x2 = 0.5876	0.276	–
[1], x2 = 0.6318	0.264	–
[1], x2 = 0.6804	0.246	–
[1], x2 = 0.7305	0.219	–
[1], x2 = 0.7842	0.188	–
[1], x2 = 0.8388	0.149	–
[1], x2 = 0.8946	0.104	–
[1], x2 = 0.9488	0.0549	–
[2], x2 = 0.0413	–	1.53e-07
[2], x2 = 0.0923	–	3.2e-07
[2], x2 = 0.1761	–	5.43e-07
[2], x2 = 0.2561	–	7.24e-07
[2], x2 = 0.3307	–	8.39e-07
[2], x2 = 0.3986	–	9.06e-07
[2], x2 = 0.4638	–	9.37e-07
[2], x2 = 0.5278	–	9.47e-07
[2], x2 = 0.587	–	9.43e-07
[2], x2 = 0.6412	–	8.99e-07
[2], x2 = 0.6944	–	8.36e-07
[2], x2 = 0.744	–	7.6e-07
[2], x2 = 0.7913	–	6.62e-07
[2], x2 = 0.8364	–	5.52e-07
[2], x2 = 0.8799	–	4.45e-07
[2], x2 = 0.9196	–	2.93e-07
[2], x2 = 0.9603	–	1.75e-07

CCCCCCCCCCC [undecane] + CCOC(=O)CC
Conditions	excess molar enthalpy [kcal/mol]	excess molar volume [m3/mol]
[1], x2 = 0.0755	0.0914	–
[1], x2 = 0.1612	0.168	–
[1], x2 = 0.2482	0.238	–
[1], x2 = 0.3331	0.29	–
[1], x2 = 0.4028	0.32	–
[1], x2 = 0.4629	0.336	–
[1], x2 = 0.5094	0.341	–
[1], x2 = 0.5483	0.34	–
[1], x2 = 0.5806	0.336	–
[1], x2 = 0.6255	0.325	–
[1], x2 = 0.6622	0.311	–
[1], x2 = 0.7018	0.292	–
[1], x2 = 0.7511	0.261	–
[1], x2 = 0.7996	0.225	–
[1], x2 = 0.8514	0.177	–
[1], x2 = 0.9026	0.125	–
[1], x2 = 0.9521	0.0667	–
[2], x2 = 0.0488	–	2.1e-07
[2], x2 = 0.1093	–	4.32e-07
[2], x2 = 0.1996	–	6.94e-07
[2], x2 = 0.2885	–	9.21e-07
[2], x2 = 0.3652	–	1.049e-06
[2], x2 = 0.4355	–	1.121e-06
[2], x2 = 0.5015	–	1.154e-06
[2], x2 = 0.5629	–	1.147e-06
[2], x2 = 0.621	–	1.119e-06
[2], x2 = 0.6752	–	1.071e-06
[2], x2 = 0.7242	–	9.82e-07
[2], x2 = 0.7714	–	8.93e-07
[2], x2 = 0.816	–	7.79e-07
[2], x2 = 0.8558	–	6.55e-07
[2], x2 = 0.895	–	5.1e-07
[2], x2 = 0.9301	–	3.49e-07
[2], x2 = 0.9671	–	2.01e-07
